# Measurements published in EP1263420B1 (priority 2000, dated 2001).
# Values joined by “and” are separate entries in the source; they are usually repeats but may differ in a detail not shown here. Equal entries are not always repeated.
# Legend:
# [1] = test system: TGase II; experiment: TGase II assay of rat liver tissue after inhaled 13-cis RA (experiment B); format: in vivo; details: for TGase II assay / TGase II assay DPM/µg protein: rat liver
# Method: Male rats (n=23) (Sprague-Dawley from Charles River) were divided into six experimental groups and were given varying amounts of 13-cis RA through an inhalant apparatus once daily for different times each day for 14 days. The experimental groups were as follows (Table 1) :1.Vehicle control : rats (3) inhaled vehicle for 240 minutes; 2. Low dose 13-cis RA: rats (4) inhaled a solution containing 13-cis RA at a concentration of 62.2µg/liter (inhaled dose 115.0µg/kg body weight) in 5 minutes; 3. Low-Middle dose 13-cis RA : rats (4) inhaled a solution containing 13-cis RA at a concentration of 62.2µg/liter (inhaled dose 334.4µg/kg body weight) in 15 minutes; 4.Middle dose 13-cis RA: rats (4) inhaled a solution containing 13-cis RA at a concentration of 62.2µg/liter (inhaled dose 1012.3µg/kg body weight) in 45 minutes; 5. Middle-High dose 13-cis RA : rats (4) inhaled a solution containing 13-cis RA at a concentration of 62.2µg/liter (inhaled dose 2843.4µg/kg body weight) in 120 minutes; 6. High dose 13-cis RA : rats (4) inhaled a solution containing 13-cis RA at a concentration of 62.2µg/liter (inhaled dose 5935.6µg/kg body weight) in 240 minutes.
# For liver tissue, a piece of approximately 100-400mg was used. Tissue was diced in small pieces and homogenized in approximately 2 volumes of scraping buffer for 2-3 minutes at 4°C. Samples were centrifuged at 14,000xg for 30 minutes at 4°C. The supernatant was removed and kept in ice until used.
# (§1) Enzyme assay mixtures were prepared by adding 80µl of SUBSTRATE mixture (322.8µl H2O, 120µl 0.5M NaBorate, 60µl 0.01M EDTA, 60µl 0.1M CaCl2, 6µl 1M DTT, 240µl dimethyl casein, 30µl Triton X-100, 1.2µl [^3H]-Putrescine, 120µl Putrescine) to 20µl sample, 20µl scraping buffer for blank control , 20 µl (18µl scraping buffer + 2µl TGase II) for positive control. Samples were mixed in 15ml tubes, the tubes were shaken before putting them into a 28°C water bath for 30 minutes. Reactions were slowed down in an ice bath. 80µl of the incubation mixture was adsorbed onto paper disks. These were immediately dropped into cold 10% TCA (0.1% Putrescine) and washed with agitation for 7 minutes, followed by 2 additional washes with 5% TCA (0.05% putrescine) for 5~7 minutes, and once more with cold (-20°C) 95% ethanol for 5 minutes. Paper disks were dried and placed into 5ml Aquasol, and counted in a Liquid Scintillation Counter. Protein concentration determination was conducted by the Bradford method.
# [2] = test system: TGase II; experiment: TGase II activity in cultured MCF-7 cells; format: cell-based, human
# Method: MCF-7 cells were seeded at a density of 1.5 x 10^5 cells/ml medium (500ml DMEM + 56.2ml FBS + 5.6m1 AB/AM) in 6cm diameter dishes for 24 hours and treated with either DMSO, RA, or 13-cis RA at 10^-6 M and grown to confluence (about 72 hours). Cells were harvested and Transglutaminase II activity was measured as described below. Nebulizer solution, inhalation procedures, details of animal housing are described below.
# Cultured cells were placed in 100 µl scraping buffer [A: 2800µl (400µl 0.5M Na-Phosphate, 500µl 0.01M EDTA, 100µl 1M DTT , 9ml PBS total 10ml) + B:700µl (10µl 20mg/ml PMSF 790µl PBS total 800µl)] for each dish. Cells were broken by a sonicator and kept in ice until used. TGase II assay was conducted as described below and previously {8217}.
# as §1
# [3] = High: 240 minutes daily 14 Days, 1872µg/kg total deposited dose
# [4] = Low-Middle: 15 minutes daily 14 Days, 117µg/kg total deposited dose
# [5] = Middle-High: 120 minutes daily 14 Days, 936µg/kg total deposited dose
# [6] = Middle: 45 minutes daily 14 Days, 351µg/kg total deposited dose
compound,measurement,setting,value
"CC1=C(/C=C/C(C)=C/C=C/C(C)=C\C(=O)O)C(C)(C)CCC1 [13-cis RA, 13-cis-Retinoic Acid]",effect on liver TGase II activity,"[1]; inhaled, up to 5.93mg/kg of inhaled dose",no significant effect
same,TGase II assay,[1]; [3],0.271 +/- 0.015 picomoles/µg protein/30 min and 0.271 ± 0.015 picomoles/µg protein/30 min
same,TGase II assay DPM/µg protein,[1]; [3],19719 DPM/µg protein
same,TGase II assay,[1]; [4],0.273 +/- 0.018 picomoles/µg protein/30 min and 0.273 ± 0.018 picomoles/µg protein/30 min
same,TGase II assay DPM/µg protein,[1]; [4],21448 DPM/µg protein
same,TGase II assay DPM/µg protein,"[1]; Low: 5 minutes daily 14 Days, 39µg/kg total deposited dose",22705 DPM/µg protein
same,TGase II assay,"[1]; Low: 5 minutes daily 14 Days, 39µg/kg total deposited dose, vehicle 0.260",0.289 +/- 0.007 picomoles/µg protein/30 min and 0.289 ± 0.007 picomoles/µg protein/30 min
same,TGase II assay,[1]; [5],0.269 +/- 0.015 picomoles/µg protein/30 min and 0.269 ± 0.015 picomoles/µg protein/30 min
same,TGase II assay DPM/µg protein,[1]; [5],20348 DPM/µg protein
same,TGase II assay,[1]; [6],0.313 +/- 0.025 picomoles/µg protein/30 min and 0.313 ± 0.025 picomoles/µg protein/30 min
same,TGase II assay DPM/µg protein,[1]; [6],24590 DPM/µg protein
same,fold induction at 1 µM,"[2]; Homo sapiens, MCF7, 72 h, read-out: stimulating TGase II activity",6.1
same,TGase II Activity,"[2]; MCF-7 cells, 10^-6 M, 72 hours, DMSO control 0.183",1.118 +/- 0.016 picomoles/µg protein/30 minutes
